For one compound, GI50 and TGI results are on record in PubChem BioAssay (NCI).

Test systems include MCF7 breast; 786-0 renal; SK-MEL-2 melanoma; DU-145 prostate; SR leukemia; SF-295 CNS; CAKI-1 renal; OVCAR-4 ovarian; T-47D breast; RXF 393 renal.
What all share (assay): inhibition of tumour cell growth, NCI panel, 48 h

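Each compound was tested at five concentrations against cells in 96-well plates for 48 hours. Here, GI50 denotes the concentration required for 50% inhibition of growth. TGI: concentration producing complete growth inhibition.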 Bounds are passed on as bounds.

As to `COc1cc(NC(=O)c2ccccc2Nc2ccnc(C(F)(F)F)c2)cc(OC)c1OC`, the GI50 is 37.1 µM in the assay with MCF7 breast; more than 100 µM in the assay on 786-0 renal; 51.1 µM in the assay with SK-MEL-2 melanoma; 95.4 µM in the assay with DU-145 prostate; 47.3 µM with SR leukemia; 41.9 µM with SF-295 CNS. The GI50 was 50.4 µM in the assay on CAKI-1 renal, 30.6 µM in the assay with OVCAR-4 ovarian, 17.7 µM with T-47D breast and more than 100 µM in the assay with RXF 393 renal. The TGI in the assay on MCF7 breast, in the assay on 786-0 renal, with SK-MEL-2 melanoma, in the assay with DU-145 prostate, in the assay on SR leukemia and in the assay with SF-295 CNS was more than 100 µM each time. Also, the TGI in the assay on CAKI-1 renal was more than 100 µM; with OVCAR-4 ovarian, more than 100 µM; with T-47D breast, 91.9 µM; with RXF 393 renal, more than 100 µM.
